Data on 3 compounds can be found in PMC9117551 (iScience, 2022).

Holding throughout (assay): SPR
Holding throughout (assay type): binding

Test [1] concerns the target T1, serine hydroxymethyltransferase 2 (SHMT2) (Homo sapiens, UniProt P34897).
T1 sequence (P34897 22-504 limits assumed): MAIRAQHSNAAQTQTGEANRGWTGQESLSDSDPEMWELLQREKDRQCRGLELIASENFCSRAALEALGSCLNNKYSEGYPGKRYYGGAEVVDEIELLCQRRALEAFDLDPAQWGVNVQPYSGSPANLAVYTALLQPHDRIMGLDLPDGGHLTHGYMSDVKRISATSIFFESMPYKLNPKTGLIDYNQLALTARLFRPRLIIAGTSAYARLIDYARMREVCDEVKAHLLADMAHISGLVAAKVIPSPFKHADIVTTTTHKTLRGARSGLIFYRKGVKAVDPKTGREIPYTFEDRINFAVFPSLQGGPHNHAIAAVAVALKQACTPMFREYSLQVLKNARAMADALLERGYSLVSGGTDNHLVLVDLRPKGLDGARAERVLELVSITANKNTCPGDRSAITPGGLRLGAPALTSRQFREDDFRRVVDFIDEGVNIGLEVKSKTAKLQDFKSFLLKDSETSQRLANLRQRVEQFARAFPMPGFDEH

Test [2] addresses T1, serine hydroxymethyltransferase 2 (SHMT2). The source holds these as a separate data set.
For another test, the target named is T2, SHMT1 (Homo sapiens, UniProt P34896).
T2 sequence (P34896 2-483): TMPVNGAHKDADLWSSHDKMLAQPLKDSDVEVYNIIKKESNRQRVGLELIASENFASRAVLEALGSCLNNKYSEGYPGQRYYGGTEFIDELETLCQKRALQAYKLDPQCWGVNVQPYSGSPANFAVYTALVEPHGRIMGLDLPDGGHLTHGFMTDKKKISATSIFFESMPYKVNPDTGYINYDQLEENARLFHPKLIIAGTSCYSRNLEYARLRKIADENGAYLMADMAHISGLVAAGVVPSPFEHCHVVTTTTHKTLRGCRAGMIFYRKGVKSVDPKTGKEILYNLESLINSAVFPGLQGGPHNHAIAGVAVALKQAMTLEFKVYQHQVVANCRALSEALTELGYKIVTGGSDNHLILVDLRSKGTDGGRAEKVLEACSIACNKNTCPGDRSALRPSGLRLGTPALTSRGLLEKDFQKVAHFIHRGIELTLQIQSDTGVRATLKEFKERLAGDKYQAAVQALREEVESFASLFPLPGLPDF

Where two headings read alike, the source gives them in different places.

Broadly, the Kd is a measure of binding affinity in units of concentration. A higher Kd goes with lower affinity. In the case of `CC1(C)[C@@H](OC(=O)CCC(=O)O)CC[C@]2(C)[C@H]3C(=O)C=C4[C@@H]5C[C@@](C)(C(=O)O)CC[C@]5(C)CC[C@@]4(C)[C@]3(C)CC[C@@H]12` [CBX, Carbenoxolone], in test [1], the Kd worked out at 15.1 µM.

Take `Nc1nc2c(c(=O)[nH]1)NC(CNc1ccc(C(=O)N[C@@H](CCC(=O)O)C(=O)O)cc1)CN2` (stereo partly shown) [THF, Tetrahydrofolic acid]: the Kd in test [1] was determined as 3.51 µM. With `CC1(C)[C@@H](O)CC[C@]2(C)[C@H]3C(=O)C=C4[C@@H]5C[C@@](C)(C(=O)O)CC[C@]5(C)CC[C@@]4(C)[C@]3(C)CC[C@@H]12` [GA, Glycyrrhetinic acid], the Kd turned out to be 2.9 µM in test [2] and 2.37 µM at SHMT1.
